Data on four molecules can be found in ChEMBL document CHEMBL1143726, “Indole alkaloids produced by a marine fungus isolate of Penicillium janthinellum Biourge” (2007).

The structures appear in SMILES notation. Activity calls are given as the source filed them. The rule behind the calls is not given here.

One assay deals with C1 41. The experiment in a line: Cytotoxicity against mouse JB6 C1 41 cells up to 200 uM by MTS assay. The format is functional, cell-based.
Another assay has as its system HL-60. The experiment in a line: Induction of apoptosis in human HL60 cells at 100 uM after 24 hrs by flow cytometry relative to control. Format: functional.
The nature of assay [1]: Inhibition of EGF-induced malignant transformation of mouse JB6 C1 41 cells in soft agar. Format: functional.

`CC1(C)C=C2c3cc4[nH]c5c(c4cc3C[C@@H]2C(C)(C)O1)C[C@@H]1CC[C@@]2(O)C3=CC(=O)[C@@H]4O[C@@]3(CC[C@]2(C)[C@@]51C)OC4(C)C` [SHEARININE A]: the outcome with C1 41 was inactive. Besides, in the assay with HL-60, the Activity was 10%.

For the molecule `CC1(C)C=C2c3cc4[nH]c5c(c4cc3[C@@H](O)[C@@H]2C(C)(C)O1)C[C@@H]1CC[C@@]2(O)C3=CC(=O)[C@@H]4O[C@@]3(CC[C@]2(C)[C@@]51C)OC4(C)C` [SHEARININE D], the result in the assay with C1 41 was inactive. The same molecule registered an Activity in the assay with HL-60 of 39%.

For `CC1(C)C=C2c3cc4[nH]c5c(c4cc3[C@H](O)[C@@H]2C(C)(C)O1)C[C@@H]1CC[C@@]2(O)C3=CC(=O)[C@@H]4O[C@@]3(CC[C@]2(C)[C@@]51C)OC4(C)C` [SHEARININE E], in the assay on C1 41, the result was inactive. In assay [1], this molecule had an INCC50 of 13 µM. In addition, the Activity with HL-60 turned out to be 34%.

Take `CC(C)=CCc1cc2[nH]c3c(c2cc1CC=C(C)C)C[C@@H]1CC[C@@]2(O)C4=CC(=O)[C@@H]5O[C@@]4(CC[C@]2(C)[C@@]31C)OC5(C)C`: the outcome in the assay on C1 41 was inactive.
